In patent publication US11759461B2, “Small molecule inhibitors of cancer stem cells and mesenchymal cancer types” (The Scripps Research Institute, priority 2017, dated 2023):

tested on: FOXC2-expressing HMLER cells; assay: Cell Titer Glo viability of FOXC2-HMLER cells (high throughput screen and 10-point response); type: cell-based; conditions: Homo sapiens; scored relative to parent compound 3; 72 hours; read-out: Activity Score, inhibition of FOXC2-expressing HMLER cells by Formula III compounds
In short: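 FOXC2-HMLER cells (HMLER run in parallel) seeded at 1,000 cells/well in MEGM, attached 1 h, then given compound in DMSO (2 μM in the screen). After 72 h, viability was read by Cell Titer Glo luminescence.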

SMILES | IC50
Cc1c(C(=O)NCCCN2CCN(C3CCCCC3)CC2)cccc1-n1nnc2cccnc21 [Compound 3CH] | > 20 µM
Cc1ccccc1CNC(=O)c1cccc(-n2nnc3cccnc32)c1C [Compound 3CI] | > 20 µM
Cc1c(C(=O)NCCC(C)N2CCCC2)cccc1-n1nnc2cccnc21 (centres unmarked) [Compound 3CJ] | > 20 µM
Cc1c(C(=O)NC(C)C(=O)N2CCCCC2)cccc1-n1nnc2cccnc21 (centres unmarked) [Compound 3CK] | > 20 µM
O=C(c1ccc(-n2nnc3cccnc32)cc1)N1CCN(c2ccc(F)cc2)CC1 [Compound 3C] | < 1 µM
Cc1ccc(C)c(N2CCN(C(=O)c3cccc(-n4nnc5cccnc54)c3)CC2)c1 [Compound 3D] | < 1 µM
Cc1ccc(Cl)cc1N1CCN(C(=O)c2cccc(-n3nnc4cccnc43)c2)CC1 [Compound 3E] | < 1 µM
COc1cccc(N2CCN(C(=O)c3cccc(-n4nnc5cccnc54)c3C)CC2)c1 [Compound 3F] | < 1 µM
Cc1ccc(C)c(N2CCN(C(=O)c3ccc(-n4nnc5cccnc54)cc3)CC2)c1 [Compound 3G] | 1 to 20 µM
Cc1ccc(Cl)cc1N1CCN(C(=O)c2ccc(-n3nnc4cccnc43)cc2)CC1 [Compound 3H] | 1 to 20 µM
Cc1cccc(N2CCN(C(=O)c3ccc(-n4nnc5cccnc54)cc3)CC2C)c1 (centres unmarked) [Compound 3I] | 1 to 20 µM
O=C(c1ccc(-n2nnc3cccnc32)cc1)N1CCN(c2ccccc2F)CC1 [Compound 3J] | 1 to 20 µM
Cc1ccc(C)c(N2CCN(CCCNC(=O)c3ccc(-n4nnc5cccnc54)cc3)CC2)c1 [Compound 3K] | 1 to 20 µM
Cc1cc(C(=O)N2CCN(c3ccccc3)CC2)ccc1-n1nnc2cccnc21 [Compound 3L] | 1 to 20 µM
Cc1cc(C(=O)N2CCC(Cc3ccccc3)CC2)ccc1-n1nnc2cccnc21 [Compound 3M] | 1 to 20 µM
Cc1cc(C(=O)NC2CCN(Cc3ccccc3)CC2)ccc1-n1nnc2cccnc21 [Compound 3N] | 1 to 20 µM
Cc1cc(C(=O)Nc2cccc(CN3CCCC3)c2)ccc1-n1nnc2cccnc21 [Compound 3O] | 1 to 20 µM
O=C(c1cccc(-n2nnc3cccnc32)c1)N1CCN(c2ccccc2)CC1 [Compound 3P] | 1 to 20 µM
O=C(c1cccc(-n2nnc3cccnc32)c1)N1CCN(c2cccc(Cl)c2)CC1 [Compound 3Q] | 1 to 20 µM
O=C(c1cccc(-n2nnc3cccnc32)c1)N1CCN(C2CCCCC2)CC1 [Compound 3R] | 1 to 20 µM
Cc1cccc(N2CCN(C(=O)c3cccc(-n4nnc5cccnc54)c3)CC2C)c1 (centres unmarked) [Compound 3S] | 1 to 20 µM
Cc1ccc(CN2CCC(CNC(=O)c3cccc(-n4nnc5cccnc54)c3)CC2)cc1 [Compound 3T] | 1 to 20 µM
COc1cccc(N2CCN(C(=O)c3ccc(C)c(-n4nnc5cccnc54)c3)CC2)c1 [Compound 3U] | 1 to 20 µM
Cc1ccc(C(=O)N2CCN(c3ccccc3)CC2)cc1-n1nnc2cccnc21 [Compound 3V] | 1 to 20 µM
Cc1ccc(C(=O)N2CCN(c3cccc(Cl)c3)CC2)cc1-n1nnc2cccnc21 [Compound 3W] | 1 to 20 µM
Cc1ccc(C)c(N2CCN(C(=O)c3ccc(C)c(-n4nnc5cccnc54)c3)CC2)c1 [Compound 3X] | 1 to 20 µM
Cc1ccc(Cl)cc1N1CCN(C(=O)c2ccc(C)c(-n3nnc4cccnc43)c2)CC1 [Compound 3Y] | 1 to 20 µM
Cc1ccc(C(=O)N2CCC(Cc3ccccc3)CC2)cc1-n1nnc2cccnc21 [Compound 3Z] | 1 to 20 µM
Cc1cccc(N2CCN(C(=O)c3cccc(-n4nnc5cccnc54)c3C)CC2C)c1 (centres unmarked) [Compound 3] | < 1 µM

same assay, conditions: Homo sapiens; scored relative to parent compound 4; 72 hours; read-out: Activity Score, inhibition of FOXC2-expressing HMLER cells by Formula IV compounds

SMILES | IC50
Cc1ccc(C)c(N2CCN(S(=O)(=O)c3c(C)nn(-c4ccc(F)cc4)c3C)CC2)c1 [Compound 4AA] | > 20 µM
Cc1nn(-c2ccc(F)cc2)c(C)c1S(=O)(=O)N1CCN(c2ccccn2)CC1 [Compound 4AB] | > 20 µM
Cc1nn(-c2ccc(F)cc2)c(C)c1S(=O)(=O)N1CCN(c2ccc(F)cc2)CC1 [Compound 4AC] | > 20 µM
Cc1ccc(-n2nc(C)c(S(=O)(=O)N3CCN(c4ccc(Cl)cc4)CC3)c2C)cc1 [Compound 4AD] | > 20 µM
Cc1ccc(-n2nc(C)c(S(=O)(=O)N3CCN(c4cccc(C)c4C)CC3)c2C)cc1 [Compound 4AE] | > 20 µM
Cc1ccc(-n2nc(C)c(S(=O)(=O)N3CCN(c4ccccn4)CC3)c2C)cc1 [Compound 4AF] | > 20 µM
Cc1c(S(=O)(=O)N2CCCN(c3ccc(=O)n(-c4ccc(F)cc4)n3)CC2)cnn1C(F)F [Compound 4AG] | > 20 µM
Cc1ccc(-n2nc(N3CCCN(S(=O)(=O)c4cnn(C(F)F)c4C)CC3)ccc2=O)cc1C [Compound 4AH] | > 20 µM
Cc1ccc(-n2nc(N3CCCN(S(=O)(=O)c4cnn(C(F)F)c4C)CC3)ccc2=O)cc1 [Compound 4AI] | > 20 µM
Cc1c(S(=O)(=O)N2CCN(c3ccc(=O)n(-c4ccc(F)cc4)n3)CC2)cnn1C(F)F [Compound 4AJ] | > 20 µM
Cc1ccc(-n2nc(N3CCN(S(=O)(=O)c4cnn(C(F)F)c4C)CC3)ccc2=O)cc1C [Compound 4AK] | > 20 µM
Cc1c(S(=O)(=O)N2CCN(c3ccc(=O)n(-c4ccccc4)n3)CC2)cnn1C(F)F [Compound 4AL] | > 20 µM
Cc1c(S(=O)(=O)N2CCN(c3ccc(=O)n(-c4ccc(Cl)cc4)n3)CC2)cnn1C(F)F [Compound 4AM] | > 20 µM
Cc1c(S(=O)(=O)N2CCN(C)c3ccccc32)cnn1C(F)F [Compound 4AN] | > 20 µM
Cc1nn(-c2ccc(-c3ccccc3)nn2)c(C)c1S(=O)(=O)N1CCN(c2ccccc2)CC1 [Compound 4AO] | > 20 µM
Cc1nn(-c2ccc(-c3ccccc3)nn2)c(C)c1S(=O)(=O)N1CCN(c2ccccn2)CC1 [Compound 4AP] | > 20 µM
Cc1cccc(N2CCN(S(=O)(=O)c3c(C)nn(-c4ccc(-c5ccccc5)nn4)c3C)CC2)c1 [Compound 4AQ] | > 20 µM
Cc1ccccc1N1CCN(S(=O)(=O)c2c(C)nn(-c3ccc(-c4ccccc4)nn3)c2C)CC1 [Compound 4AR] | > 20 µM
Cc1ccc(N2CCN(S(=O)(=O)c3c(C)nn(-c4ccc(-c5ccccc5)nn4)c3C)CC2)cc1 [Compound 4AS] | > 20 µM
Cc1ccc(-c2ccc(-n3nc(C)c(S(=O)(=O)N4CCN(c5ccccc5)CC4)c3C)nn2)cc1 [Compound 4AT] | > 20 µM
Cc1ccc(-c2ccc(-n3nc(C)c(S(=O)(=O)N4CCN(C(C)C)CC4)c3C)nn2)cc1 [Compound 4AU] | > 20 µM
Cc1c(S(=O)(=O)N2CCN(c3cc(-c4cccc(F)c4)ncn3)CC2)cnn1C(F)F [Compound 4A] | < 1 µM
Cc1ccccc1-c1cc(N2CCN(S(=O)(=O)c3cnn(C(F)F)c3C)CC2)ncn1 [Compound 4B] | < 1 µM
COc1cccc(-c2cc(N3CCN(S(=O)(=O)c4cnn(C(F)F)c4C)CC3)ncn2)c1 [Compound 4C] | < 1 µM

SMILES | IC50
Cc1ccc(C)c(N2CCN(S(=O)(=O)c3c(C)nn(C)c3C)CC2)c1 [Compound 4D] | < 1 µM
Cc1ccc(-c2cc(N3CCN(S(=O)(=O)c4ccccc4C)CC3)ncn2)cc1 [Compound 4E] | < 1 µM
Cc1cccc(N2CCN(S(=O)(=O)c3c(C)nn(-c4ccc(F)cc4)c3C)CC2)c1C [Compound 4F] | < 1 µM
Cc1nn(-c2ccc(Cl)cc2)c(C)c1S(=O)(=O)N1CCN(c2ccccn2)CC1 [Compound 4G] | < 1 µM
CC(=O)c1ccc(N2CCN(S(=O)(=O)c3c(C)nn(-c4ccc(C)cc4)c3C)CC2)cc1 [Compound 4H] | < 1 µM
Cc1cccc(-c2cc(N3CCN(S(=O)(=O)c4ccccc4C)CC3)ncn2)c1 [Compound 4I] | 1 to 20 µM
Cc1nn(-c2ccccc2)c(C)c1S(=O)(=O)N1CCN(c2ccccn2)CC1 [Compound 4J] | 1 to 20 µM
Cc1nn(-c2ccc(F)cc2)c(C)c1S(=O)(=O)N1CCN(c2ncccn2)CC1 [Compound 4K] | 1 to 20 µM
Cc1ccc(-n2nc(C)c(S(=O)(=O)N3CCN(c4ccccc4)CC3)c2C)cc1 [Compound 4L] | 1 to 20 µM
Cc1ccc(-n2nc(C)c(S(=O)(=O)N3CCN(c4ncccn4)CC3)c2C)cc1 [Compound 4M] | 1 to 20 µM
Cc1nn(C)c(C)c1S(=O)(=O)N1CCN(c2cccc(Cl)c2)CC1 [Compound 4N] | > 20 µM
Cc1cccc(N2CCN(S(=O)(=O)c3c(C)nn(C)c3C)CC2C)c1 (centres unmarked) [Compound 4O] | > 20 µM
Cc1nn(C)c(C)c1S(=O)(=O)N1CCN(c2ccccc2F)CC1 [Compound 4P] | > 20 µM
Cc1nn(C)c(C)c1S(=O)(=O)N(CC(=O)N1CCN(c2ncccn2)CC1)c1ccc(C(C)C)cc1 [Compound 4Q] | > 20 µM
Cc1cccc(-c2cc(N3CCN(S(=O)(=O)c4ccc(C)cc4C)CC3)ncn2)c1 [Compound 4R] | > 20 µM
Cc1cccc(-c2cc(N3CCN(S(=O)(=O)c4cnn(C(F)F)c4C)CC3)ncn2)c1 [Compound 4S] | > 20 µM
Cc1c(S(=O)(=O)N2CCN(c3cc(-c4ccc(F)cc4)ncn3)CC2)cnn1C(F)F [Compound 4T] | > 20 µM
Cc1ccc(-c2cc(N3CCN(S(=O)(=O)c4ccc(C)cc4C)CC3)ncn2)cc1 [Compound 4U] | > 20 µM
Cc1ccccc1S(=O)(=O)N1CCN(c2cc(-c3ccccc3)ncn2)CC1 [Compound 4V] | > 20 µM
Cc1ccc(S(=O)(=O)N2CCN(c3cc(-c4ccccc4)ncn3)CC2)c(C)c1 [Compound 4W] | > 20 µM
Cc1c(S(=O)(=O)N2CCN(c3cc(-c4ccccc4)ncn3)CC2)cnn1C(F)F [Compound 4X] | > 20 µM
COc1ccc(-c2cc(N3CCN(S(=O)(=O)c4cnn(C(F)F)c4C)CC3)ncn2)cc1 [Compound 4Y] | > 20 µM
COc1ccc(F)cc1-c1cc(N2CCN(S(=O)(=O)c3cnn(C(F)F)c3C)CC2)ncn1 [Compound 4Z] | > 20 µM
Cc1ccc(-c2cc(N3CCN(S(=O)(=O)c4cnn(C(F)F)c4C)CC3)ncn2)cc1 [Compound 4] | < 1 µM
